Reference: patent US12226405B2, “Compounds and compositions for inhibiting the activity of HIF2-alpha and their methods of use” (Novartis AG, priority 2020, dated 2025)

What was measured:
[1] = test system: HIF2α-regulated expression of the endogenous target gene hEGLN3 in 786-O cells; test: Cellular iScript assay for HIF2α (quantitative RT-PCR of hEGLN3); format: cell-based, human; conditions: Homo sapiens, 786-0, 48 hours incubation
In short: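 786-O cells were exposed to eleven 2-fold compound dilutions for 48 h at 37° C. Lysates underwent one-step TaqMan qRT-PCR for hEGLN3 with beta-actin as reference; 2^(−ΔΔCt) versus DMSO, as % of control, was fit with a four-parameter model to give IC50.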

[2] = molecular target: HIF2α PAS-B domain (236-350, biotinylated on the N-terminus) (Homo sapiens (Human), UniProt Q99814)
HIF2α PAS-B domain (236-350, biotinylated on the N-terminus), sequence (Q99814 236-350): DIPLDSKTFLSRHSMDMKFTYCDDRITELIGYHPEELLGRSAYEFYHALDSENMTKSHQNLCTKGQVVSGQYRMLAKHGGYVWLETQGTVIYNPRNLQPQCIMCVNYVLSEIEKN
Protocol: The assay buffer contained 50 mM Tris-HCl pH7 (Sigma), 20 mM NaCl (Fluka), 0.02% BSA (Sigma), 0.005% Triton X-100 (Pierce) and 1 mM DTT (Fluka). After a 30 min incubation period, 5 μL Streptavidin PVT SPA Beads (Perkin Elmer) at 1.2 mg/mL, diluted in the buffer, were added.

[3] = test system: HIF2α-dependent transcription in 786-O-HRE-Luc cells; test: In vitro cellular hypoxia response element (HRE) reporter gene assay (RGA) for HIF2α; format: cell-based, human; conditions: Homo sapiens, 24 hours incubation
In short: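 Renal carcinoma cells carrying a 4×HRE-driven PEST-destabilised firefly luciferase were treated a day after seeding with eleven 2-fold compound dilutions (0.1% DMSO) for 24 h at 37° C. BrightGlo luminescence, background-subtracted and expressed as % of DMSO control, was fitted four-parametrically for IC50.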

| Compound | IC50 [1] | IC50 [2] | IC50 [3] |
| --- | --- | --- | --- |
| COC1=CC(C(F)(F)F)=CN2C[C@@]3(CCCc4c3ccc(Br)c4F)N=C12 [Example 80, (S)-6′-bromo-5′-fluoro-8-methoxy-6-(trifluoromethyl)-3′,4′-dihydro-2′H,3H-spiro[imidazo[1,2-a]pyridine-2,1′-naphthalene]] | 106 nM | 11 nM | 2040 nM |
| Fc1ccc2c(c1Cl)CCC[C@@]21CN2C=C(C(F)(F)F)C=C(OC(F)F)C2=N1 [Example 82, (5)-5′-chloro-8-(difluoromethoxy)-6′-fluoro-6-(trifluoromethyl)-3′,4′-dihydro-2′H,3H-spiro[imidazo[1,2-a]pyridine-2,1′-naphthalene]] | 39 nM | ≤ 3 nM | 155 nM |
| Fc1c(Br)ccc2c1[C@@H](F)[C@H](F)C[C@@]21CN2C=C(C(F)(F)F)C=C(OC(F)F)C2=N1 [Example 83, (2S,3′R,4′R)-6′-bromo-8-(difluoromethoxy)-3′,4′,5′-trifluoro-6-(trifluoromethyl)-3′,4′-dihydro-2′H,3H-spiro[imidazo[1,2-a]pyridine-2,1′-naphthalene]] | 30 nM | 9 nM | 27 nM |
| COc1ccc2c(c1F)CCC[C@@]21CN2C=C(C(F)(F)F)C=C(OC(F)F)C2=N1 [Example 84, (S)-8-(difluoromethoxy)-5′-fluoro-6′-methoxy-6-(trifluoromethyl)-3′,4′-dihydro-2′H,3H-spiro[imidazo[1,2-a]pyridine-2,1′-naphthalene]] | 69 nM | 3 nM | 184 nM |
| Fc1ccc2c(c1F)CCC[C@@]21CN2C=C(C(F)(F)F)C=C(OC(F)F)C2=N1 [Example 85, (S)-8-(difluoromethoxy)-5′,6′-difluoro-6-(trifluoromethyl)-3′,4′-dihydro-2′H,3H-spiro[imidazo[1,2-a]pyridine-2,1′-naphthalene]] | 71 nM | 4 nM | 204 nM |
| FC(F)OC1=CC(C(F)(F)F)=CN2C[C@@]3(CCCc4cc(C(F)(F)F)ccc43)N=C12 [Example 86, (S)-8-(difluoromethoxy)-6,6′-bis(trifluoromethyl)-3′,4′-dihydro-2′H,3H-spiro[imidazo[1,2-a]pyridine-2,1′-naphthalene]] | 64 nM | 13 nM | 179 nM |
| FC(F)OC1=CC(C(F)(F)F)=CN2C[C@@]3(CCCc4c(Cl)cccc43)N=C12 [Example 88, (S)-5′-chloro-8-(difluoromethoxy)-6-(trifluoromethyl)-3′,4′-dihydro-2′H,3H-spiro[imidazo[1,2-a]pyridine-2,1′-naphthalene]] | 32 nM | ≤ 4 nM | 142 nM |
| Fc1c(Br)ccc2c1CCC[C@@]21CN2C=C(Cl)C=C(OC(F)F)C2=N1 [Example 89, (S)-6′-bromo-6-chloro-8-(difluoromethoxy)-5′-fluoro-3′,4′-dihydro-2′H,3H-spiro[imidazo[1,2-a]pyridine-2,1′-naphthalene]] | 34 nM | ≤ 7 nM | 220 nM |
| N#CC1=CN2C[C@@]3(CCCc4c3ccc(F)c4F)N=C2C(OC(F)F)=C1 [Example 91, (S)-8-(difluoromethoxy)-5′,6′-difluoro-3′,4′-dihydro-2′H,3H-spiro[imidazo[1,2-a]pyridine-2,1′-naphthalene]-6-carbonitrile] | 30 nM | 5 nM | 262 nM |
| N#CC1=CN2C[C@@]3(CCC(F)(F)c4c3ccc(Br)c4F)N=C2C(OC(F)F)=C1 [Example 92, (S)-6′-bromo-8-(difluoromethoxy)-4′,4′,5′-trifluoro-3′,4′-dihydro-2′H,3H-spiro[imidazo[1,2-a]pyridine-2,1′-naphthalene]-6-carbonitrile] | 153 nM | 29 nM | 626 nM |
| N#CC1=CN2C[C@@]3(CCCc4c3ccnc4Cl)N=C2C(OC(F)F)=C1 [Example 94, (S)-1′-chloro-8-(difluoromethoxy)-7′,8′-dihydro-3H,6′H-spiro[imidazo[1,2-a]pyridine-2,5′-isoquinoline]-6-carbonitrile] | 197 nM | 33 nM | 2260 nM |
| FCOC1=CC(C(F)(F)F)=CN2C[C@@]3(CCOc4c(Cl)cccc43)N=C12 [Example 95, (S)-8-chloro-8′-(fluoromethoxy)-6′-(trifluoromethyl)-3′H-spiro[chromane-4,2′-imidazo[1,2-a]pyridine]] | 181 nM | 23 nM | 271 nM |
| N#Cc1ccc2c(c1Cl)OCC[C@@]21CN2C=C(C(F)(F)F)C=C(OC(F)F)C2=N1 [Example 96, (S)-8-chloro-8′-(difluoromethoxy)-6′-(trifluoromethyl)-3′H-spiro[chromane-4,2′-imidazo[1,2-a]pyridine]-7-carbonitrile] | 199 nM | 32 nM | 518 nM |
| Fc1c(Cl)ccc2c1OC[C@H](F)[C@@]21CN2C=C(C(F)(F)F)C=C(OC(F)F)C2=N1 [Example 97, (3R,4S)-7-chloro-8′-(difluoromethoxy)-3,8-difluoro-6′-(trifluoromethyl)-3′H-spiro[chromane-4,2′-imidazo[1,2-a]pyridine]] | 57 nM | 11 nM | 193 nM |
| Fc1ccc2c(c1F)OC[C@H](F)[C@@]21CN2C=C(C(F)(F)F)C=C(OC(F)F)C2=N1 [Example 98, (3R,4S)-8′-(difluoromethoxy)-3,7,8-trifluoro-6′-(trifluoromethyl)-3′H-spiro[chromane-4,2′-imidazo[1,2-a]pyridine]] | 104 nM | 17 nM | 120 nM |
| CSc1ccc2c(c1F)OCC[C@@]21CN2C=C(C(F)(F)F)C=C(OC(F)F)C2=N1 [Example 99, (S)-8′-(difluoromethoxy)-8-fluoro-7-(methylthio)-6′-(trifluoromethyl)-3′H-spiro[chromane-4,2′-imidazo[1,2-a]pyridine]] | 71 nM | 10 nM | 286 nM |
| FC(F)OC1=CC(C(F)(F)F)=CN2C[C@@]3(CCOc4c3ccc(Br)c4Cl)N=C12 [Example 100, (S)-7-bromo-8-chloro-8′-(difluoromethoxy)-6′-(trifluoromethyl)-3′H-spiro[chromane-4,2′-imidazo[1,2-a]pyridine]] | 63 nM | 4 nM | 106 nM |
| FC(F)OC1=CC(C(F)(F)F)=CN2C[C@@]3(CCOc4c3ccc(Br)c4Br)N=C12 [Example 102, (S)-7,8-dibromo-8′-(difluoromethoxy)-6′-(trifluoromethyl)-3′ H-spiro[chromane-4,2′-imidazo[1,2-a]pyridine]] | 48 nM | 11 nM | 66 nM |
| COc1ccc2c(c1F)OCC[C@@]21CN2C=C(C(F)(F)F)C=C(OC(F)F)C2=N1 [Example 103, (S)-8′-(difluoromethoxy)-8-fluoro-7-methoxy-6′-(trifluoromethyl)-3′H-spiro[chromane-4,2′-imidazo[1,2-a]pyridine]] | 109 nM | 42 nM | 417 nM |
| FC(F)OC1=CC(C(F)(F)F)=CN2C[C@@]3(CCOc4c(C(F)(F)F)cccc43)N=C12 [Example 104, (S)-8′-(difluoromethoxy)-6′,8-bis(trifluoromethyl)-3′H-spiro[chromane-4,2′-imidazo[1,2-a]pyridine]] | 118 nM | ≤ 5 nM | 624 nM |
| Fc1c(OC(F)(F)F)ccc2c1OCC[C@@]21CN2C=C(C(F)(F)F)C=C(OC(F)F)C2=N1 [Example 105, (S)-8′-(difluoromethoxy)-8-fluoro-7-(trifluoromethoxy)-6′-(trifluoromethyl)-3′H-spiro[chromane-4,2′-imidazo[1,2-a]pyridine]] | 183 nM | 21 nM | 248 nM |
| Fc1c(SC(F)F)ccc2c1OCC[C@@]21CN2C=C(C(F)(F)F)C=C(OC(F)F)C2=N1 [Example 106, (S)-8′-(difluoromethoxy)-7-((difluoromethyl)thio)-8-fluoro-6′-(trifluoromethyl)-3′H-spiro[chromane-4,2′-imidazo[1,2-a]pyridine]] | 81 nM | 10 nM | 148 nM |
| FC(F)OC1=CC(C(F)(F)F)=CN2C[C@@]3(CCOc4c(Br)cccc43)N=C12 [Example 107, (S)-8-bromo-8′-(difluoromethoxy)-6′-(trifluoromethyl)-3′H-spiro[chromane-4,2′-imidazo[1,2-a]pyridine]] | 189 nM | 7 nM | 807 nM |
| [2H]C1C([2H])([2H])Sc2c(F)cccc2[C@]12CN1C=C(C#N)C=C(OC(F)F)C1=N2 (stereo partly drawn) [Example 109, (2S)-8-(difluoromethoxy)-8′-fluoro-3H-spiro[imidazo[1,2-a]pyridine-2,4′-thiochromane]-6-carbonitrile-2′,2′,3′-d3] | 42 nM | 4 nM | 90 nM |
| N#Cc1ccc2c(c1F)SCC[C@@]21CN2C=C(C(F)(F)F)C=C(OC(F)F)C2=N1 [Example 111, (S)-8-(difluoromethoxy)-8′-fluoro-6-(trifluoromethyl)-3H-spiro[imidazo[1,2-a]pyridine-2,4′-thiochromane]-7′-carbonitrile] | 43 nM | 9 nM | 100 nM |
| N#CC1=CN2C[C@@]3(CCSc4c3ccc(F)c4F)N=C2C(OC(F)F)=C1 [Example 112, (S)-8-(difluoromethoxy)-7′,8′-difluoro-3H-spiro[imidazo[1,2-a]pyridine-2,4′-thiochromane]-6-carbonitrile] | 41 nM | 7 nM | 116 nM |
